Measurements from ChEMBL document CHEMBL5528068, “Structure-Activity Relationship Studies and Optimization of 4-Hydroxypyridones as GPR84 Agonists” (J Med Chem, 2024).
Values after ≈ are worked out from the molar mass of the structure shown.

Target: T1, G-protein coupled receptor 84 (Homo sapiens, UniProt Q9NQS5)
Assay: Agonist activity at GPR84 (unknown origin) expressed in HTLA cells assessed as beta-arrestin recruitment incubated for 1 day by PRESTO-Tango assay

T1 sequence (Q9NQS5 whole entry): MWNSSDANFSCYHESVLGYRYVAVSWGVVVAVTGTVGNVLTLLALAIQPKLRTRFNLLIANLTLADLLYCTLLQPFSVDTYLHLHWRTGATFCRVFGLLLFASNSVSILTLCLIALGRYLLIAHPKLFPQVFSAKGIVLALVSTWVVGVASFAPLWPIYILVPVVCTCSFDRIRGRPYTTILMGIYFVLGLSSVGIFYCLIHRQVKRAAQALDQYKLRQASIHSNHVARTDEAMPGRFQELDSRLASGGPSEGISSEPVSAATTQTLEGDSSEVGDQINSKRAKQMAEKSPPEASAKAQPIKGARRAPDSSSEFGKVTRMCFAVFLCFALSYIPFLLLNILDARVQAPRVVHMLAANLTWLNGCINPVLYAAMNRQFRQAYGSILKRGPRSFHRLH

EC50 [nM] | SMILES
2.95 | CC(C)(C)c1ccc(CCc2cc(O)cc(=O)[nH]2)cc1
0.0468 | CCCCCCCc1cc(O)cc(O)n1
11700 | Cc1nnc(-c2ccc(-c3cc(O)cc(=O)[nH]3)cc2)o1
5.75 | CCCCCCCC#Cc1cc(O)cc(=O)[nH]1
0.302 | CCCc1ccc(CCc2cc(O)cc(=O)[nH]2)cc1
11 | O=c1cc(O)cc(CCc2ccc(OC(F)(F)F)cc2)[nH]1
0.427 | CCCCCCCCCCCc1cc(O)cc(=O)[nH]1
25.7 | CCCCc1ccc(-c2cc(O)cc(O)n2)cc1
4.17 | O=c1cc(O)cc(CCCOc2ccccc2)[nH]1
12.6 | CCCCCc1ccc(-c2cc(O)cc(=O)[nH]2)cc1
4.47 | CCc1ccc(CCc2cc(O)cc(=O)[nH]2)cc1
0.0275 | CCCCCCCCc1cc(O)cc(O)n1
12.6 | CC(C)Cc1ccc(CCc2cc(O)cc(=O)[nH]2)cc1
13.8 | Cc1ccc(CCc2cc(O)cc(=O)[nH]2)cc1
3.31 | CCCCCCCCNc1cc(O)cc(=O)[nH]1
5010 | O=c1cc(O)cc(CCc2ccc3c(c2)Cc2ccccc2-3)[nH]1
3240 | O=C1c2ccccc2C(=O)N1CCCCc1cc(O)cc(=O)[nH]1
1.32 | CCCCCCCOc1cc(O)cc(=O)[nH]1
389 | Cc1cccc(CCc2cc(O)cc(=O)[nH]2)c1
3.24 | CCCc1ccc(COc2cc(O)cc(=O)[nH]2)cc1
0.912 | O=c1cc(O)cc(-c2ccc(Oc3ccccc3)cc2)[nH]1
102 | O=c1cc(O)cc(-c2ccc(Oc3cncnc3)nc2)[nH]1
4270 | O=c1cc(O)cc(CCc2cccc(-c3ccccc3)c2)[nH]1
44.7 | CCOc1ccc(CCc2cc(O)cc(=O)[nH]2)cc1
0.24 | CCCCCCCCCCc1cc(O)cc(=O)[nH]1
23400 | CCCC(=O)NCCCCc1cc(O)cc(=O)[nH]1
1.05 | O=c1cc(O)cc(-c2ccc(Oc3ccccc3)nc2)[nH]1

Tested on: not listed separately
Assay: Dissociation constant, pKa of compound by UV spectrophotometric analysis

pKa | SMILES
6.68 | CCCCCCCc1cc(O)cc(O)n1
6.6 | O=c1cc(O)cc(CCc2ccccc2)[nH]1
8.04 | CCCCc1ccc(-c2cc(O)cc(O)n2)cc1

Target: T1, G-protein coupled receptor 84
Assay: Agonist activity at GPR84 (unknown origin) expressed in Flp-In-T-REx-293 cells transfected with GalphaI incubated for 1 hr by Topcount scintillation counting method

EC50 [nM] | SMILES
24 | CCCCCCCC#Cc1cc(O)cc(=O)[nH]1
1.2 | CCCc1ccc(CCc2cc(O)cc(=O)[nH]2)cc1
63.1 | CCCCc1ccc(-c2cc(O)cc(O)n2)cc1
26.3 | CCCCCc1ccc(-c2cc(O)cc(=O)[nH]2)cc1
12 | CC(C)Cc1ccc(CCc2cc(O)cc(=O)[nH]2)cc1
525 | O=c1cc(O)cc(CCc2ccc3c(c2)Cc2ccccc2-3)[nH]1
4.27 | O=c1cc(O)cc(-c2ccc(Oc3ccccc3)cc2)[nH]1
33.1 | CCOc1ccc(CCc2cc(O)cc(=O)[nH]2)cc1

Target: T1, G-protein coupled receptor 84
Assay: Agonist activity at GPR84 (unknown origin) expressed in doxycycline induced Flp-In-T-REx-293 cells transfected with GalphaI preincubated for 15 mins in presence of IBMX followed by forskolin stimulation for 45 mins by time-resolved fluorescence assay

EC50 [nM] | SMILES
14.5 | CCCCCCCC#Cc1cc(O)cc(=O)[nH]1
0.331 | CCCc1ccc(CCc2cc(O)cc(=O)[nH]2)cc1
18.2 | CCCCc1ccc(-c2cc(O)cc(O)n2)cc1
19.5 | CCCCCc1ccc(-c2cc(O)cc(=O)[nH]2)cc1
6.76 | CC(C)Cc1ccc(CCc2cc(O)cc(=O)[nH]2)cc1
1660 | O=c1cc(O)cc(CCc2ccc3c(c2)Cc2ccccc2-3)[nH]1
1.26 | O=c1cc(O)cc(-c2ccc(Oc3ccccc3)cc2)[nH]1
15.8 | CCOc1ccc(CCc2cc(O)cc(=O)[nH]2)cc1
15.8 | O=c1cc(O)cc(-c2ccc(Oc3ccccc3)nc2)[nH]1

Target: T1, G-protein coupled receptor 84
Assay: Agonist activity at GPR84 (unknown origin) expressed in HEK293T cells expressing beta-arrestin 2-nanoluciferase incubated for 5 mins by beta-arrestin recruitment based BRET assay

EC50 [nM] | SMILES
550 | CCCCCCCC#Cc1cc(O)cc(=O)[nH]1
214 | CCCc1ccc(CCc2cc(O)cc(=O)[nH]2)cc1
1620 | CCCCc1ccc(-c2cc(O)cc(O)n2)cc1
2630 | CCCCCc1ccc(-c2cc(O)cc(=O)[nH]2)cc1
912 | CC(C)Cc1ccc(CCc2cc(O)cc(=O)[nH]2)cc1
209 | O=c1cc(O)cc(-c2ccc(Oc3ccccc3)cc2)[nH]1
7240 | CCOc1ccc(CCc2cc(O)cc(=O)[nH]2)cc1
263 | O=c1cc(O)cc(-c2ccc(Oc3ccccc3)nc2)[nH]1

Target: T1, G-protein coupled receptor 84
Assay: Displacement of [3H]140 from GPR84 (unknown origin) expressed in Flp-In-T-REx-293 cells transfected with GalphaI incubated for 1 hr by liquid scintillation spectrometry analysis

Ki [nM] | SMILES
13.5 | CCCc1ccc(CCc2cc(O)cc(=O)[nH]2)cc1
14.8 | O=c1cc(O)cc(-c2ccc(Oc3ccccc3)cc2)[nH]1
13.8 | O=c1cc(O)cc(-c2ccc(Oc3ccccc3)nc2)[nH]1

Tested on: not listed separately
Assay: Solubility in PBS at pH 7.4 incubated for 24 hrs by HPLC analysis

solubility at 24 h [µM] | SMILES
10 (≈ 2.37 µg/mL) | CCCCCCCCCc1cc(O)cc(O)n1
